Holding throughout (test): growth of human tumour cells (NCI), 48 h
The subject of assay [1] is A498 renal.
For assay [2], the system named is HCC-2998 colon.
Assay [3] has as its system HL-60(TB) leukemia.
In assay [4] the test system is RXF 393 renal.
Assay [5] relates to SK-MEL-5 melanoma.
For assay [6], the system named is SNB-19 CNS.
Assay [7] deals with SNB-75 CNS.
In assay [8] the test system is SR leukemia.
Assay [9] relates to TK-10 renal.
Assay [10] has as its system UACC-257 melanoma.

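Compound exposure: 48 hours, 5 concentrations, 96-well plates. Here, GI50 denotes the concentration required for 50% inhibition of growth. At the TGI there is no net growth.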

For `Cc1ccc(C(SCC(N)C(=O)O)(c2ccccc2)c2ccc(C)cc2)cc1` (stereo not given), the GI50 in assay [1] is 0.225 µM; in [2] it was 0.236 µM; in assay [3], 0.235 µM; in assay [4] it was 0.0957 µM; in assay [5], 0.0465 µM; in assay [6], 0.476 µM. Moreover, the GI50 in assay [7] is 0.334 µM; in assay [8], 0.204 µM; in [9], 11.2 µM; in assay [10] it was 2.13 µM. For the same compound, the TGI came to 4.5 µM in assay [1]; 2.77 µM in [2]; 0.588 µM in assay [3]; 3.52 µM in assay [4]; 13.8 µM in assay [5]; 39.3 µM in [6]. Also, the TGI in [7] was 17.7 µM; in assay [8] it was 4.33 µM; in assay [9], 30.9 µM; in assay [10], greater than 56.8 µM.
As for `C[As](C)SC1OC(CO)C(O)C1O` (stereo not given), the GI50 in assay [1] was 0.516 µM; in assay [3] it was 0.454 µM; in [4], 0.176 µM; in assay [5], 0.215 µM; in assay [6] it was 8.68 µM; in [7], 0.912 µM. The GI50 is 0.213 µM in [8], 0.174 µM in assay [9] and 1.72 µM in assay [10]. The TGI in [1] is 3.62 µM; in [4], 2.37 µM; in assay [5], 0.583 µM; in [6], greater than 57.6 µM; in assay [7], 2.62 µM; in assay [8], 3.13 µM. Further, the TGI in assay [9] is 0.816 µM; in assay [10], 13.6 µM.
Take `O=C1c2ccccc2C(=O)C1(Cl)C1(S(=O)(=O)O)c2ccccc2-c2ccccc21`: the TGI in assay [1], in [2], in assay [3], in assay [4], in assay [5] and in assay [7] was greater than 100 µM in each case. Moreover, the TGI in assay [8], in assay [9] and in assay [10] was greater than 100 µM each time.
Regarding `C=C(F)C(=O)N1CCN(c2nc(OC[C@@H]3CCCN3C)nc3c2CCN(c2cccc4cccc(Cl)c24)C3)C[C@@H]1CC#N`, the GI50 in [1] is 1.39 µM; in assay [2] it was 1.2 µM; in assay [3], 0.86 µM; in assay [4] it was 1.29 µM; in assay [5] it was 1.63 µM; in [6], 1.19 µM. Besides, the GI50 in assay [7] was 1.17 µM; in assay [8], 0.657 µM; in assay [9], 1.1 µM; in assay [10], 1.57 µM. Besides, the TGI worked out at 2.86 µM in [1]; 2.66 µM in assay [2]; 2.5 µM in assay [3]; 2.66 µM in [4]; 3.06 µM in assay [5]; 5.32 µM in assay [6]. In addition, the TGI amounted to 2.67 µM in assay [7], 2.6 µM in assay [8], 2.67 µM in [9] and 3.1 µM in assay [10].
For `COC(=O)C1=C(c2ccc3c(c2)OCO3)O[C@H](c2cc(OC)c(OC)c(OC)c2)[C@H]1COC(C)=O`, the TGI in [1] is 2.94 µM; in [2], 19.6 µM; in [3], 32.5 µM; in assay [4], 5.09 µM; in assay [5], 7.83 µM; in assay [7] it was greater than 100 µM. Further, the values for the TGI in assay [8], in assay [9] and in assay [10] were 70.3 µM, greater than 100 µM and 56 µM, respectively.
As for `O=C(CCCn1ccnc1[N+](=O)[O-])NCCn1cncc1[N+](=O)[O-]`, the TGI in assay [1], in assay [3], in [4], in [5], in assay [7] and in assay [8] was greater than 100 µM in each case. The TGI in [9] and in assay [10] was greater than 100 µM each time.
Take `O=C1CCCC/C(=C/c2ccccc2)N1`: the TGI in [1], in assay [2], in [3], in [4], in assay [7] and in assay [8] was greater than 100 µM in each case. Moreover, the TGI in assay [9] and in assay [10] was greater than 100 µM throughout.
Take `CC(=O)OC1Oc2ccccc2-c2oc(=O)c(-c3cc(=O)oc4cc(O)ccc34)cc21` (stereo not given): the GI50 in assay [1] was 13.3 µM; in assay [3], 21.8 µM; in [4], 4.5 µM; in [5] it was 13.2 µM; in assay [6], 26.6 µM; in [7], 22.3 µM. The GI50 in [8] is 2.65 µM; in [9] it was 32.6 µM; in [10], 23.9 µM. Besides, the TGI in assay [1] was 40.4 µM; in assay [3], greater than 100 µM; in assay [4], 20.6 µM; in assay [5], 26.5 µM; in assay [6], greater than 100 µM; in assay [7] it was 72.2 µM. In addition, the figures for the TGI in assay [8], in assay [9] and in assay [10] were 6.5 µM, greater than 100 µM and 79 µM, respectively.
In the case of `Cc1nnc(S(=O)(=O)c2ccc(N=Nc3c(N)nc(N)nc3N)cc2)s1`, the TGI was greater than 100 µM in assay [1]; 97.8 µM in [3]; greater than 100 µM in [4]; greater than 100 µM in [5]; greater than 100 µM in assay [6]; greater than 100 µM in assay [8]. Also, the TGI in assay [9] and in assay [10] was greater than 100 µM throughout.
Turning to `CC(C)(C)C(=O)OCOP(=O)(OCOC(=O)C(C)(C)C)C1CCCN(O)C1=O` (stereo not given), the GI50 in [2] is 0.446 µM; in assay [3], 0.538 µM; in [4], 0.36 µM; in assay [5], 0.324 µM; in assay [6], 0.551 µM; in assay [7], 1.43 µM. In addition, the GI50 was 0.433 µM in [8], 0.537 µM in assay [9] and 1.19 µM in assay [10]. Moreover, the TGI stood at 5.59 µM in assay [2]; 3.53 µM in [3]; 1.74 µM in [4]; 1.58 µM in [5]; 28.7 µM in assay [6]; 28.6 µM in [7]. Further, the figures for the TGI in [8], in [9] and in assay [10] were 7.87 µM, 8.05 µM and 13.5 µM, respectively.

For the origin of these results see PubChem BioAssay (NCI).
